Laboratory results: patent US11279733B2, “Peptide antibiotics” (priority 2017, dated 2022)
Values after ≈ are worked out from the molar mass of the structure shown. Read-outs that look alike come from different tables or passages of the source. Positions of bridges follow the written chain, without caps; N, C: chain ends. Non-standard residues stand in square brackets, D forms with d. Residues, ends and D or L forms follow the SMILES beside them. *: point of attachment. Decanoyl(3R-OH) = CCCCCCC[C@@H](O)CC(=O)*; dBip = N[C@H](Cc1ccc(-c2ccccc2)cc1)C(=O)O; X3 = CCCCCCCCCCCC(O)CC(=O)*; Decanoyl = CCCCCCCCCC(=O)*; dDab = NCC[C@@H](N)C(=O)O; X6 = CC(C)CCCC(O)CC(=O)*; Dab = NCC[C@H](N)C(=O)O; Dap = NC[C@H](N)C(=O)O

Tests used:
A. baumannii ATCC 19606 = conditions: ATCC 19606
Description: (§1) Bacteria were either obtained from American Type Culture Collection (ATCC; Manassas, Va., USA) or independent academic clinical isolate collections, as listed in Table 18 below. Bacteria were cultured in Nutrient broth (NB; Bacto Laboratories, catalogue No. 234000) or Mueller Hinton broth (MHB; Bacto Laboratories, catalogue No. 211443) at 37° C. overnight with shaking (˜180 RPM). A sample of each culture was then diluted 50-fold in fresh MHB and incubated at 37° C. for 2-3 h with shaking (˜180 RPM). Compound stock solutions were prepared as 0.64 mg/mL or 2.56 mg/mL in water. The compounds, at twice the final desired concentration, were serially diluted 2-fold across the wells of 96-well plates (Polystyrene, Corning, catalogue No. 3370). Mid-log phase bacterial cultures (after 2-3 h incubation) were diluted to a final concentration of 1×10^6 colony forming units (CFU)/mL, and 50 μL was added to each well giving a final cell density of 5×10^5 and a compound concentration range of 32 μg/mL to 0.015 μg/mL (128-0.06 μg/mL against P. aeruginosa PA9704).

A. baumannii GN_093 PmxR = conditions: GN 093 PmxR
Description: as §1

E. coli ATCC 25922 = conditions: ATCC 25922
Description: as §1

K. pneumoniae ATCC 13883 = conditions: ATCC 13883
Description: as §1

[1] = system: K. pneumoniae ATCC 700603, MDR; conditions: ATCC 700603
Description: as §1

[2] = system: K. pneumoniae ATCC BAA-2146, NDM-1 pos; conditions: ATCC BAA-2146
Description: as §1

[3] = system: K. pneumoniae GN_102 PmxR; conditions: GN 102 PmxR
Description: as §1

[4] = system: K. pneumoniae GN_106, PmxR; conditions: GN 106, PmxR
Description: as §1

P. aeruginosa ATCC 27853 = conditions: ATCC 27853
Description: as §1

[5] = system: P. aeruginosa GN_043, PmxR
Description: as §1

[6] = system: P. aeruginosa GN_105, PmxR; conditions: GN 105, PmxR
Description: as §1

[7] = system: S. aureus ATCC 25923, MSSA; conditions: ATCC 25923
Description: as §1

Compound | MIC, A. baumannii ATCC 19606 (A. baumannii ATCC 19606) [µg/mL] | MIC, E. coli ATCC 25922 (E. coli ATCC 25922) [µg/mL] | MIC, K. pneumoniae ATCC 13883 (K. pneumoniae ATCC 13883) [µg/mL] | MIC, K. pneumoniae ATCC 700603, MDR [1] [µg/mL] | MIC, K. pneumoniae ATCC BAA-2146, NDM-1 pos [2] [µg/mL] | MIC, P. aeruginosa ATCC 27853 (P. aeruginosa ATCC 27853) [µg/mL] | MIC A. baumannii ATCC 19606 (A. baumannii ATCC 19606) [µg/mL] | MIC A. baumannii GN_093 PmxR (A. baumannii GN_093 PmxR) [µg/mL] | MIC E. coli ATCC 25922 (E. coli ATCC 25922) [µg/mL] | MIC K. pneumoniae ATCC 13883 (K. pneumoniae ATCC 13883) [µg/mL] | MIC K. pneumoniae ATCC 700603, MDR [1] [µg/mL] | MIC K. pneumoniae ATCC BAA-2146, NDM-1 pos [2] [µg/mL] | MIC K. pneumoniae GN_102 PmxR [3] [µg/mL] | MIC K. pneumoniae GN_106, PmxR [4] [µg/mL] | MIC P. aeruginosa ATCC 27853 (P. aeruginosa ATCC 27853) [µg/mL] | MIC P. aeruginosa GN_105, PmxR [6] [µg/mL] | MIC S. aureus ATCC 25923, MSSA [7] [µg/mL] | other results
CCCCCCC[C@@H](O)CC(=O)N[C@H](CCN)C(=O)N[C@H]1CCNC(=O)[C@H](CC(C)C)NC(=O)[C@H](CCN)NC(=O)[C@H](CCN)NC(=O)[C@H](CC(C)C)NC(=O)[C@@H](Cc2ccccc2)NC(=O)[C@H](CN)NC1=O [compound 993, 3(R)OH-nC9CO-D-Dab-cyc[L-Dab-L-Dap-D-Phe-L-Leu-L-Dab-L-Dab-L-Leu]] ({Decanoyl(3R-OH)}-[dDab][Dab][Dap][dF]L[Dab][Dab]L; lactam 2-C) | 8 (≈ 7.76 µM) | 2 (≈ 1.94 µM) | 4 (≈ 3.88 µM) | 4 (≈ 3.88 µM) | 8 (≈ 7.76 µM) | 2 (≈ 1.94 µM) |  |  |  |  |  |  |  |  |  |  |  | MIC, A. baumannii Cl Ptyela 10073 4512:2, PmxR (A. baumannii GN_093 PmxR): 16 µg/mL (≈ 15.5 µM); MIC, K. pneumoniae Cl Koprana 10065 0661:1, PmxR [3]: 2 µg/mL (≈ 1.94 µM); MIC, K. pneumoniae Cl 138-16347-20362, PmxR [4]: 2 µg/mL (≈ 1.94 µM); MIC, P. aeruginosa FADDI-PA070, PmxR ([5]; Table 5, polymyxin-resistant): 2 µg/mL (≈ 1.94 µM); MIC, P. aeruginosa PA9704, PmxR [6]: 2 µg/mL (≈ 1.94 µM); MIC, S. Aureus ATCC 25923, MSSA [7]: 8 µg/mL (≈ 7.76 µM)
CCCCCCC[C@@H](O)CC(=O)N[C@H](CCN)C(=O)N[C@H]1CCNC(=O)[C@H](CC(C)C)NC(=O)[C@H](C)NC(=O)[C@H](CCN)NC(=O)[C@H](CC(C)C)NC(=O)[C@@H](Cc2ccccc2)NC(=O)[C@H](CCN)NC1=O [compound 4944, 3(R)OH-nC9CO-D-Dab-cyc[L-Dab-L-Dab-D-Phe-L-Leu-L-Dab-L-Ala-L-Leu]] ({Decanoyl(3R-OH)}-[dDab][Dab][Dab][dF]L[Dab]AL; lactam 2-C) |  |  |  |  |  |  | 32 (≈ 31.5 µM) | >32 | 16 (≈ 15.8 µM) | 16 (≈ 15.8 µM) | 16 (≈ 15.8 µM) | 8 (≈ 7.88 µM) | 8 (≈ 7.88 µM) | 32 (≈ 31.5 µM) | 8 (≈ 7.88 µM) | 16 (≈ 15.8 µM) | >32 | MIC P. aeruginosa GN_043, PmxR ([5]; polymyxin-resistant): 4 µg/mL (≈ 3.94 µM)
CCCCCCC[C@@H](O)CC(=O)N[C@H](CCN)C(=O)N[C@H]1CCNC(=O)[C@H](CC(C)C)NC(=O)[C@H](CCN)NC(=O)[C@H](CCN)NC(=O)[C@H](Cc2ccccc2)NC(=O)[C@@H](Cc2ccccc2)NC(=O)[C@H](CCN)NC1=O [compound 5003, 3(R)OH-nC9CO-D-Dab-cyc[L-Dab-L-Dab-D-Phe-L-Phe-L-Dab-L-Dab-L-Leu]] ({Decanoyl(3R-OH)}-[dDab][Dab][Dab][dF]F[Dab][Dab]L; lactam 2-C) |  |  |  |  |  |  | 16 (≈ 14.8 µM) | 8 (≈ 7.42 µM) | 8 (≈ 7.42 µM) | 4 (≈ 3.71 µM) | 16 (≈ 14.8 µM) | 16 (≈ 14.8 µM) | 4 (≈ 3.71 µM) | 4 (≈ 3.71 µM) | 2 (≈ 1.85 µM) | 2 (≈ 1.85 µM) | 8 (≈ 7.42 µM) | MIC P. aeruginosa GN_043, PmxR ([5]; P. aeruginosa GN_043, PmxR): 2 µg/mL (≈ 1.85 µM)
CCCCCCCCCCCC(O)CC(=O)N[C@H](CCN)C(=O)N[C@H]1CCNC(=O)[C@H](CC(C)C)NC(=O)[C@H](CCN)NC(=O)[C@H](CCN)NC(=O)[C@H](CC(C)C)NC(=O)[C@@H](Cc2ccccc2)NC(=O)[C@H](CCN)NC1=O (stereo partly drawn) [compound 5015, 3OH-nC13CO-D-Dab-cyc[L-Dab-L-Dab-D-Phe-L-Leu-L-Dab-L-Dab-L-Leu]] (X3-[dDab][Dab][Dab][dF]L[Dab][Dab]L; lactam 2-C) |  |  |  |  |  |  | 4 (≈ 3.63 µM) | 8 (≈ 7.27 µM) | 4 (≈ 3.63 µM) | 4 (≈ 3.63 µM) | 8 (≈ 7.27 µM) | 8 (≈ 7.27 µM) | 8 (≈ 7.27 µM) | 4 (≈ 3.63 µM) | 4 (≈ 3.63 µM) | 4 (≈ 3.63 µM) | 4 (≈ 3.63 µM) | MIC P. aeruginosa GN_043, PmxR [5]: 4 µg/mL (≈ 3.63 µM)
CCCCCCCCCC(=O)N[C@H](CCN)C(=O)N[C@H]1CCNC(=O)[C@H](CC(C)C)NC(=O)[C@H](CCN)NC(=O)[C@H](CCN)NC(=O)[C@H](CC(C)C)NC(=O)[C@@H](Cc2ccccc2)NC(=O)[C@H](CCN)NC1=O [compound 5017, nC9CO-D-Dab-cyc[L-Dab-L-Dab-D-Phe-L-Leu-L-Dab-L-Dab-L-Leu]] (Decanoyl-[dDab][Dab][Dab][dF]L[Dab][Dab]L; lactam 2-C) |  |  |  |  |  |  | 8 (≈ 7.78 µM) | 16 (≈ 15.6 µM) | 4 (≈ 3.89 µM) | 8 (≈ 7.78 µM) | 16 (≈ 15.6 µM) | 16 (≈ 15.6 µM) | 32 (≈ 31.1 µM) | 16 (≈ 15.6 µM) | 2 (≈ 1.94 µM) | 4 (≈ 3.89 µM) | 16 (≈ 15.6 µM) | MIC P. aeruginosa GN_043, PmxR [5]: 2 µg/mL (≈ 1.94 µM)
CCCCCCC[C@@H](O)CC(=O)N[C@@H](CCCCN)C(=O)N[C@H]1CCNC(=O)[C@H](CC(C)C)NC(=O)[C@H](CCN)NC(=O)[C@H](CCN)NC(=O)[C@H](CC(C)C)NC(=O)[C@@H](Cc2ccccc2)NC(=O)[C@H](CCN)NC1=O [compound 5562, 3(R)OH-nC9CO-L-Lys-cyc[L-Dab-L-Dab-D-Phe-L-Leu-L-Dab-L-Dab-L-Leu]] ({Decanoyl(3R-OH)}-K[Dab][Dab][dF]L[Dab][Dab]L; lactam 2-C) | >32 | 8 (≈ 7.46 µM) | 8 (≈ 7.46 µM) | 4 (≈ 3.73 µM) | 8 (≈ 7.46 µM) | 2 (≈ 1.86 µM) |  | 32 (≈ 29.8 µM) |  |  |  |  | 4 (≈ 3.73 µM) | 4 (≈ 3.73 µM) |  | >32 |  | MIC P. aeruginosa GN_043, PmxR ([5]; Table 6, polymyxin-resistant): 4 µg/mL (≈ 3.73 µM); MIC, S. aureus ATCC 25923, MSSA [7]: 32 µg/mL (≈ 29.8 µM)
CCCCCCC[C@@H](O)CC(=O)N[C@@H](CCN)C(=O)N[C@H]1CCNC(=O)[C@H](CC(C)C)NC(=O)[C@H](CN)NC(=O)[C@H](CCN)NC(=O)[C@H](CC(C)C)NC(=O)[C@@H](Cc2ccc(-c3ccccc3)cc2)NC(=O)[C@H](CCN)NC1=O [compound 5565, 3(R)OH-nC9CO-L-Dab-cyc[L-Dab-L-Dab-D-Bip-L-Leu-L-Dab-L-Dap-L-Leu]] ({Decanoyl(3R-OH)}-[Dab][Dab][Dab][dBip]L[Dab][Dap]L; lactam 2-C) |  |  |  |  |  |  | 8 (≈ 7.23 µM) | 16 (≈ 14.5 µM) | 4 (≈ 3.62 µM) | 4 (≈ 3.62 µM) | 8 (≈ 7.23 µM) | 16 (≈ 14.5 µM) | 32 (≈ 28.9 µM) | 16 (≈ 14.5 µM) | 4 (≈ 3.62 µM) | 4 (≈ 3.62 µM) | 2 (≈ 1.81 µM) | MIC P. aeruginosa GN_043, PmxR ([5]; polymyxin-resistant): 2 µg/mL (≈ 1.81 µM)
CC(C)CCCC(O)CC(=O)N[C@@H](CCN)C(=O)N[C@H]1CCNC(=O)[C@H](CC(C)C)NC(=O)[C@H](CCN)NC(=O)[C@H](CCN)NC(=O)[C@H](CC(C)C)NC(=O)[C@@H](Cc2ccccc2)NC(=O)[C@H](CCN)NC1=O (stereo partly drawn) [compound 5566, nC5(7-Me)CH(OH)CH2CO-L-Dab-cyc[L-Dab-L-Dab-D-Phe-L-Leu-L-Dab-L-Dab-L-Leu]] (X6-[Dab][Dab][Dab][dF]L[Dab][Dab]L; lactam 2-C) | 8 (≈ 7.76 µM) | 4 (≈ 3.88 µM) | 4 (≈ 3.88 µM) | 8 (≈ 7.76 µM) | 16 (≈ 15.5 µM) | 4 (≈ 3.88 µM) |  | 16 (≈ 15.5 µM) |  |  |  |  | 32 (≈ 31.1 µM) | 16 (≈ 15.5 µM) |  | 4 (≈ 3.88 µM) |  | MIC P. aeruginosa GN_043, PmxR ([5]; Table 6, polymyxin-resistant): 2 µg/mL (≈ 1.94 µM); MIC, S. aureus ATCC 25923, MSSA [7]: 2 µg/mL (≈ 1.94 µM)
